The text below walks through data of patent publication US11617735B2, “Purified forms of rofecoxib, methods of manufacture and use” (Tremeau Pharmaceuticals, Inc., priority 2018, dated 2023).

SMILES strings stand for the structures. Like-named read-outs stand apart in the source and are kept apart here.

For one data set, the system named is bacterial mutagenicity. The conditions noted are these: cited from earlier work.
A short description of data set [1]: Solubility in solvents by UHPLC assay. It is filed as physicochemical. The source says: The tool called “Early phase solvent selection: solubility prediction” was used. This tool allows to predict the solubility of material in a large scope of solvents, knowing the solubility in some of them. The solubility can be also predicted in function of temperature, and for solvent combinations. The solubility prediction is based on similar structures moieties between solvents. Therefore, the measurement of solubility in 16 different solvents allowed for the estimate of solubility in up to 106 solvents. […] Solubilities were obtained by UHPLC assay. Among these 106 solvents, 27 seemed interesting as solvent or antisolvent. DMF. NMP and DMSO are the solvents in which rofecoxib (RXB-201) is the most soluble (>100 g/L at 30° C.). Nevertheless, ICH Q3C, DMF and NMP were less suitable than DMSO which remains the best option. Thus, no changes were implemented regarding the solvent.
Since the main purpose of the recrystallization is to decrease the rate of one single identified impurity, 4-[4-(methylsulfinyl)phenyl]-3-phenyl-2(5H)-furanone solubilities were measured in a couple of probable antisolvents identified in Table 9. A reference of 4-[4-(methylsulfinyl)phenyl]-3-phenyl-2(5H)-furanone (CHG P059-038) was synthesized at lab on 8 g for this study, with 98% purity, as per International Patent Application No. WO/2005/120584, which is incorporated herein in its entirety. Table 10 below reports the solubility of 4-[4-(methylsulfinyl)phenyl]-3-phenyl-2(5H)-furanone in various antisolvent candidates. It is noteworthy that 4-[4-(methylsulfinyl)phenyl]-3-phenyl-2(5H)-furanone is very soluble in acetic acid. […] Alcohols can alternatively be employed as antisolvent.

The subject of the next data set is arthritis model. Particulars: in vivo; cited from earlier work.
For data set [2] the following is noted: in vivo; cited from earlier work.
Setting [3] is: analog data from software training sets / literature.

In the case of `c1ccc(SCCSc2ccccc2)cc1` [1,2-bis(phenylthio)ethane], the Experimental mutagenicity result in the data set with bacterial mutagenicity (setting [3]) was “non-mutagenic”.
For the compound `N#CCc1ccccc1` [A-RSM2-01, 2-phenylacetonitrile], in the data set on bacterial mutagenicity (setting [3]), the Experimental mutagenicity entry is listed as “negative”.
For orientation: solubility means the concentration that dissolves in the medium under given conditions. Turning to `C[S+]([O-])c1ccc(C2=C(c3ccccc3)C(=O)OC2)cc1` (stereo not drawn) [A-STG4-01, 4-(4-(methylsulfinyl)phenyl)-3-phenylfuran-2(5H)-one], the solubility in data set [1] (acetic acid, 30 °C, organic solvent or mixture, Table 10: Acetic acid, 30 °C, read-out: Solubility) is 1540 mg/mL; in data set [1] (acetic acid, organic solvent or mixture, acetic acid, temperature not stated, read-out: Solubility in acetic acid), more than 1000 mg/mL; in data set [1] (ethanol, 30 °C, organic solvent or mixture, Table 10: Ethanol, 30 °C, read-out: Solubility), 28 mg/mL; in data set [1] (isopropanol (IPA), 30 °C, organic solvent or mixture, Table 10: IPA, 30 °C, read-out: Solubility), 0.2 mg/mL; in data set [1] (n-butanol, 30 °C, organic solvent or mixture, Table 10: n-Butanol, 30 °C, read-out: Solubility), 14 mg/mL; in data set [1] (water, 30 °C, water, Table 10: Water, 30 °C, read-out: Solubility), 0.7 mg/mL. Besides, in the data set on arthritis model, the “Pharmacological activity in an arthritis model compared with rofecoxib” value was “better”. Also, the “Pharmacokinetic profile compared with rofecoxib” value in data set [2] was “slightly improved”.
Take `O=C(CBr)c1ccccc1` [LS-188087, 2-bromoacetophenone]: in the data set with bacterial mutagenicity, the Experimental mutagenicity entry was “negative”.
In the case of `CS(=O)(=O)c1ccc(C(=O)CBr)cc1` [LS-394467, 2-Bromo-1-[4-(methylsulfonyl)phenyl]-1-ethanone], in the data set on bacterial mutagenicity (setting [3]), the Experimental mutagenicity entry was “positive”.
